Results on 86 compounds are retold here after patent US20190110476A1, “NOVEL ISOTHIAZOLAMIDES, PROCESSES FOR THEIR PREPARATION AND THEIR USE AS FUNGICIDES” (priority 2014, published 2019).

Structures are written as SMILES. Marks after values point to notes of the source that are not given here.

The first data set is described as follows: Measurement of LogP values by HPLC on reversed phase columns (EEC directive 79/831 Annex V.A8). The class given is physicochemical.
Details: not given
In outline:
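Following EEC directive 79/831 Annex V.A8, lipophilicity was derived from retention on reversed-phase HPLC columns. Separate values are given per diastereoisomer, and UV lambda-max (200–400 nm) was read at the peak signals.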
For `COc1ccc(CNc2nsc(C(=O)N(Cc3ccccc3)C3CC3)c2Cl)cc1` [I-897], the LogP was 4.14[a].

On to `CCC(c1ccc(Cl)cc1Cl)N(C(=O)c1snc(NCc2ccc(OC)cc2)c1Cl)C1CC1` (stereo not drawn) [I-932], for which the LogP was 5.62[a]. For `CCOC(=O)c1snc(N(Cc2ccccc2)Cc2ccccc2)c1-c1ccc(F)cc1` [E-VII-031], the “LogP [a]” value is 6.11^[a]. For the compound `COC(=O)Nc1nsc(C(=O)NCc2ccc(Cl)cc2)c1Cl` [I-579], the LogP was 2.29[a]. Take `COc1ccc(CNc2nsc(C(=O)NCc3ccc(F)c(C)c3)c2Cl)cc1` [I-350]: the LogP is 3.89[a].

In the case of `COc1ccc(CNc2nsc(C(=O)NCc3ccc(C)n3C)c2Cl)cc1` [I-1320], the LogP is 3.39[a].

As for `C[C@H](NC(=O)c1snc(N)c1-c1ccc(F)cc1)C1CCCCC1` [I-333], the LogP is 3.29[a]. As to `CCOC(=O)c1snc(N)c1Br` [E-VII-060], the “LogP [a]” value is 1.93^[a]. In the case of `COc1ccc(CNc2nsc(C(=O)NCC3CCC(C(F)(F)F)CC3)c2Cl)cc1` (stereo not drawn) [I-107], the LogP is 4.30[a]. As for `CS(C)=Nc1nsc(C(=O)NCc2cc(F)c(F)cc2F)c1F` [II-072], the “LogP [a]” value was 1.43^[a]. In the case of `Nc1nsc(C(=O)Nc2ccc(F)cc2F)c1Cl` [I-864], the LogP is 2.07[a]. For `CCOc1c(N)nsc1C(=O)NCc1ccccc1F` [I-730], the LogP was 1.93[a]. As for `CN1C2CCC1CC(NC(=O)c1snc(Cl)c1Cl)C2` (stereo not drawn) [E-II-018], the “LogP [a]” value was 0.66^[a].

`Nc1nsc(C(=O)NC2CCCC3CCCCC32)c1Cl` (stereo not drawn) [I-808]: the LogP is 3.33[a].

With `O=C(NC1CCCC2CCCCC21)c1snc(NCc2ccccc2)c1NCc1ccccc1` (stereo not drawn) [I-047], the LogP was 5.65[a]. Still for that read-out and setting: for `Nc1nsc(C(=O)NCC2CCCCC2)c1C#CCO` [I-618] the value was 1.90[c]; for `COc1ccc(CNC(=O)c2snc(NCc3ccc(OC)cc3)c2Cl)cc1` [I-102], 3.46[a].

As for `Nc1nsc(C(=O)NCC2CCCOC2)c1Cl` (stereo not drawn) [I-010], the LogP is 1.07[a]. Still for that read-out and setting: the value for `Cc1cccc(C)c1CN(C(=O)c1snc(N)c1Cl)C1CC1` [I-154] was 3.02[a]; that for `COc1ccc(CNc2nsc(C(=O)N(Cc3c(C)cccc3C)C3CC3)c2Cl)cc1` [I-891] was 4.82[a]; that for `COc1ccc(CNc2nsc(C(=O)NCCc3ccccn3)c2Cl)cc1` [I-1255] was 1.52[a]. Still for that read-out and setting: the value for `Nc1nsc(C(=O)NCc2ncc(C(F)(F)F)cc2Cl)c1Cl` [I-286] was 2.58[a]; that for `COC(=O)Nc1nsc(C(=O)NCc2ccccc2F)c1Cl` [I-239] was 1.98[a]. `CCOC(=O)c1snc(NCc2ccc(OC)cc2)c1Cl` [E-VII-069]: the “LogP [a]” value was 3.87^[a]. Take `COc1ccc(CNc2nsc(C(=O)NC(C)(C)c3nc(C)cs3)c2Cl)cc1` [I-1267]: the LogP is 3.63[a].

`COc1ccc(CNc2nsc(C(=O)NCc3cc(OC)c(OC)c(OC)c3)c2Cl)cc1` [I-1344]: the LogP was 3.08[a]. On the same count and under the same terms, the value for `O=C(NCc1ccccc1F)c1snc(NC2CC2)c1Cl` [I-057] was 2.66[a]; that for `Cc1cccc(NC(=O)c2snc(N)c2Cl)c1` [I-915] was 2.28[a]. With `Nc1nsc(C(=O)NCc2ccc(Cl)nc2)c1Cl` [I-122], the LogP was 1.31[a]. Same read-out and setting: for `COc1c(F)ccc(CNC(=O)c2snc(N)c2Cl)c1F` [I-464] the value was 2.12[a]. With `Cc1ccc(S(C)=Nc2nsc(C(=O)NCC3CCCCC3)c2Cl)cc1` (stereo not drawn) [II-050], the “LogP [a]” value is 3.51^[a]. Still for that read-out and setting: for `CS(C)=Nc1nsc(C(=O)NCc2cc(F)c(F)c(F)c2)c1Cl` [II-046] the value was 1.68^[a].

Take `Cc1c(N)nsc1C(=O)NCc1ccc(Cl)nc1` [I-110]: the LogP is 1.09[a]. With `CS(C)=Nc1nsc(C(=O)NCc2ccc(F)c(F)c2F)c1Cl` [II-047], the “LogP [a]” value is 1.57^[a]. `O=C(NCc1ccccc1F)c1cc(N(Cc2ccccc2)Cc2ccccc2)ns1` [I-311]: the LogP is 4.38[a]. As for `O=C(NCc1ccc(F)cc1F)c1snc(N=S2CCCC2)c1F` [II-059], the “LogP [a]” value is 1.57^[a]. With `COc1c(N)nsc1C(=O)NCc1ccccc1F` [I-733], the LogP was 1.64[a]. `O=C(NC(CCc1ccccc1)C1CCC1)c1snc(Cl)c1Cl` (stereo not drawn) [E-II-029]: the “LogP [a]” value is recorded as 5.04 and the “LogP [b]” value stood at 4.91.

With `C[C@H](NC(=O)c1snc(NCC(F)(F)F)c1Cl)C1CCCCC1` [I-427], the LogP is 4.11[a].

Regarding `COc1ccc(CN(Cc2ccccc2)c2nscc2Cl)cc1` [Z-A-007], the “LogP [a]” value was 5.03^[a].

As to `O=C(NCc1ccc(F)cc1)c1cc(N(Cc2ccccc2)Cc2ccccc2)ns1` [I-309], the LogP is 4.36[a]. Still for that read-out and setting: the value for `COc1ccc(CNc2nsc(C(=O)NC3CC(C)CC(C)(C)C3)c2Cl)cc1` (stereo not drawn) [I-1206] was 5.00[a]; that for `Nc1nsc(C(=O)NCC2CCCCCC2)c1Cl` [I-054] was 2.86[a]. Same read-out and setting: for `COc1ccc(CNc2nsc(C(=O)NCc3ccccc3F)c2Cl)cc1` [I-043] the value was 3.46[a]. For the compound `O=C(NCC1CCC(C(=O)NC2CC2)CC1)c1snc(Cl)c1Cl` (stereo not drawn) [E-II-016], the “LogP [a]” value is 2.21^[a]. Take `O=C(NCc1ncc(C(F)(F)F)cc1Cl)c1snc(N(Cc2ccccc2)Cc2ccccc2)c1Br` [I-200]: the LogP was 6.06[a].

`COc1ccc(CNc2nsc(C(=O)NCc3ccc(Oc4ccc(F)cc4)cc3)c2Cl)cc1` [I-222]: the LogP was 4.44[a]. As for `Nc1nsc(C(=O)NC2CCCCC2)c1Cl` [I-001], the LogP is 2.10[a]. On the same count and under the same terms, for `CCc1cccc(C)c1CN(C(=O)c1snc(N)c1Cl)C1CC1` [I-184] the value was 3.35[a]. Same read-out and setting: the value for `COc1ccc(CNc2nsc(C(=O)N(C3CCCCC3)C3CC3)c2Cl)cc1` [I-893] was 4.67[a]. Still for that read-out and setting: for `CC(=O)N(C(C)=O)c1nsc(C(=O)NCc2ccccc2F)c1Cl` [I-101] the value was 2.64[a].

With `Nc1nsc(C(=O)NC2CCc3ccccc32)c1Cl` (stereo not drawn) [I-140], the LogP is 2.30[a]. Still for that read-out and setting: for `COc1ccc(CNc2nsc(C(=O)N(c3ccc(F)cc3F)C3CC3)c2Cl)cc1` [I-921] the value was 4.02[a]; for `COc1ccc(CNc2nsc(C(=O)N(Cc3ccc(Cl)cc3Cl)C3CC3)c2Cl)cc1` [I-930], 5.08[a]. Same read-out and setting: the value for `Nc1nsc(C(=O)NCC2(F)CCCC2)c1Br` [I-829] was 1.83[a]. As to `COc1ccc(CNc2nsc(C(=O)NCc3cccc(OC)c3F)c2Cl)cc1` [I-236], the LogP is 3.46[a].

For `COc1ccc(CNc2nsc(C(=O)N3CCc4ccccc4C3)c2Cl)cc1` [II-064], the “LogP [a]” value was 3.68^[a]. Consider `Cc1ccc(F)c(CN(C(=O)c2cc(NCc3ccccc3)ns2)C2CC2)c1` [I-996], for which the LogP was 4.01[a]. Still for that read-out and setting: the value for `COc1ccc(CNc2nsc(C(=O)NCc3cc(C(F)(F)F)ccc3Cl)c2Cl)cc1` [I-1246] was 4.37[a]; that for `C[C@H](NC(=O)c1snc(N(S(C)(=O)=O)S(C)(=O)=O)c1Cl)C1CCCCC1` [I-103] was 3.76[a]. For the compound `CCOC(=O)c1snc(N(C(C)=O)C(C)=O)c1Cl` [E-VII-022], the “LogP [a]” value is 2.47^[a]. As to `COc1ccc(CNc2nsc(C(=O)NCc3cccc(OC(F)(F)F)c3)c2Cl)cc1` [I-1233], the LogP is 4.13[a]. Same read-out and setting: for `COc1ccc(CNc2nsc(C(=O)NC3CCCC3c3ccccc3)c2Cl)cc1` (stereo not drawn) [I-269] the value was 4.41[a]. With `CCCS(CC)=Nc1nsc(C(=O)NCC2CCCCC2)c1Cl` (stereo not drawn) [II-086], the “LogP [c]” value was 1.90^[c]. Turning to `CC(=O)Nc1nsc(C(=O)NCc2ccccc2F)c1Cl` [I-100], the LogP is 1.70[a]. For `CCC(=O)Nc1nsc(C(=O)NC(C)C2CCCCC2)c1Cl` (stereo not drawn) [I-601], the LogP is 2.82[a].

As for `CS(C)=Nc1nsc(C(=O)NCC2CCCCC2)c1F` [II-053], the “LogP [a]” value is 1.53^[a]. For `Cc1c(N)nsc1C(=O)NCc1ccc(F)c(F)c1` [I-149], the LogP was 1.69[a]. Turning to `COc1ccc(CNc2nsc(C(=O)NC3CC34CCCCC4)c2Cl)cc1` (stereo not drawn) [I-1548], the LogP was 4.39[a]. Same read-out and setting: for `Cc1cc(C)c(CNC(=O)c2snc(N)c2Cl)cc1C` [I-328] the value was 2.78[a]. As to `O=C(NCc1ccccc1Cl)c1snc(Cl)c1Cl` [E-II-003], the “LogP [a]” value was 3.52^[a]. With `CCCC(c1ccccc1)N(C(=O)c1snc(N)c1Cl)C1CC1` (stereo not drawn) [I-908], the LogP is 3.48[a]. In the case of `CCCS(C)=Nc1nsc(C(=O)NCC2CCCCC2)c1Cl` (stereo not drawn) [II-089], the “LogP [a]” value was 2.23^[a]. In the case of `Cc1ccc(NC(=O)c2cc(N(Cc3ccccc3)Cc3ccccc3)ns2)cc1Cl` [I-906], the LogP was 5.68[a]. As for `Nc1nsc(C(=O)N(Cc2c(Cl)cccc2Cl)C2CC2)c1Cl` [I-208], the LogP is 3.02[a]. For `Nc1nsc(C(=O)NC2CC2)c1Cl` [I-115], the LogP is 0.84[a]. Still for that read-out and setting: the value for `Nc1nsc(C(=O)NCC2(F)CCC2)c1Cl` [I-827] was 1.50[a].

On to `CS(C)=Nc1nsc(C(=O)NCC2CCOC2)c1F` (stereo not drawn) [II-071], for which the “LogP [a]” value is 0.26^[a]. Consider `COc1ccc(CNc2nsc(C(=O)NCc3csc4ccc(Cl)cc34)c2Cl)cc1` [I-1340], for which the LogP is 4.37[a]. `COc1ccc(CNC(=O)c2snc(N)c2C)cn1` [I-136]: the LogP was 0.96[a].

Consider `Nc1nsc(C(=O)NCc2ccccc2F)c1-c1ccc(F)cc1` [I-335], for which the LogP was 2.43[a]. As to `Nc1nsc(C(=O)NC2CCCC2c2ccccc2)c1Cl` (stereo not drawn) [I-288], the LogP is 2.71[a]. For the compound `Nc1cc(C(=O)NCc2cc(F)cc(F)c2)sn1` [I-303], the LogP was 4.55[a]. For the compound `O=C(NCC1CCCO1)c1snc(Cl)c1Cl` (stereo not drawn) [E-II-006], the “LogP [a]” value is 2.20^[a]. Consider `Cc1ccccc1NC(=O)c1snc(N)c1Cl` [I-914], for which the LogP was 2.08[a].

The data set is the same for the next values; noted with them: HPLC LC-UV, acidic range, 0.1% formic acid in water and acetonitrile as eluent.
The term chromatographic logP denotes a lipophilicity value derived from retention on a column. Low values mean lower lipophilicity, high ones higher lipophilicity. In turn, `c1ccc(CN(Cc2ccccc2)c2ccsn2)cc1` [Z-A-001, N,N-dibenzyl-1,2-thiazol-3-amine] gave a chromatographic logP of 4.13.
